# Read-outs that look alike come from different tables or passages of the source.
# Experiments:
# E. Coli KC-14 [1] = test: Therapeutic effect on infections in mice, similar test (Table 4); format: in vivo, ddY strain male mice; settings: E. coli KC-14, 2.5×10^5 cfu/mouse
# Description: (§1) Test method: E. Coli KC-14 and P. aeruginosa E-2 were suspended in 5% mucin and 0.5 ml of the suspension was injected intraperitoneally to ddY strain male mice (body weight: ca. 20 g; four weeks age; 10 mice per group). The amount of the bacteria inoculated was 5.1×10^4 CFU/mouse for E. coli and 7.5×10^4 CFU/mouse for P. aeruginosa. Drug was given orally once after 2 hours of inoculation and, out of the survival rate after one week, ED50 was calculated by a Probit method. As to a comparison/control, ofloxacin was used.
# (§2) A similar test was conducted by inoculating E. coli KC-14 (2.5×10^5 cfu/mouse) and P. aeruginosa E-2 (1.25×10^5 cfu/mouse) and the result is given in Table 4.
# P. aeruginosa E-2 [2] = test: as above; format: in vivo, ddY strain male mice; settings: P. aeruginosa E-2, 1.25×10^5 cfu/mouse
# Description: as §1, §2
# [3] = system: Klebsiella pneumoniae NCTC 9632; test: MIC, agar plate dilution method; format: cell-based
# Description: (§3) Test Method: In accordance with a standard method by Japan Chemotherapeutic Society [Chemotherapy, 29(1), pages 76-79, 1981], agar plate dilution method was used and the MIC was measured. Thus, bouillon for measuring sensitivity was used and the bacterial liquid cultured at 37° C. for 18 hours was diluted to an extent of 10^6 CFU/ml using said medium. This was inoculated to an agar medium containing drug for measuring sensitivity using a microplanter, cultured at 37° C. for 18 hours, and MIC was measured. Ofloxacin was used for comparison/control.
# (§4) The above described test was additionally conducted on the compounds of the examples described below using the same microorganisms.
# [4] = system: Staphylococcus aureus 209-P JC-1; test: MIC, agar plate dilution method; format: cell-based
# Description: as §3, §4
# [5] = system: Escherichia coli N1HJ JC-2; test: MIC, agar plate dilution method; format: cell-based
# Description: as §3, §4
# [6] = system: Bacillus subtilis ATCC 6633; test: MIC, agar plate dilution method; format: cell-based
# Description: as §3, §4
# [7] = system: Streptococcus pneumoniae Type I; test: MIC, agar plate dilution method; format: cell-based
# Description: as §3, §4
# [8] = system: Shigella flexneri 2a EW-10; test: MIC, agar plate dilution method; format: cell-based
# Description: as §3, §4
# [9] = system: Proteus mirabilis IFO 3849; test: MIC, agar plate dilution method; format: cell-based; settings: IFO3849, Table 1, 10^6 CFU/ml, 37° C., 18 hours
# Description: as §3, §4
# [10] = system: Streptococcus pyogenes S-23; test: MIC, agar plate dilution method; format: cell-based
# Description: as §3, §4
# [11] = system: Serratia marcescens IFO 3736; test: MIC, agar plate dilution method; format: cell-based
# Description: as §3, §4
# [12] = system: Pseudomonas aeruginosa IFO-3445; test: MIC, agar plate dilution method; format: cell-based
# Description: as §3, §4
# E. Coli KC-14 [13] = test: Therapeutic effect on infections in mice (Table 3); format: in vivo, ddY strain male mice; settings: E. coli KC-14, 5.1×10^4 CFU/mouse i.p.; drug orally once 2 hours after inoculation; survival after one week, Probit
# Description: as §1
# P. aeruginosa E-2 [14] = test: Therapeutic effect on infections in mice (Table 3); format: in vivo, ddY strain male mice; settings: P. aeruginosa E-2, 7.5×10^4 CFU/mouse i.p.; drug orally once 2 hours after inoculation; survival after one week, Probit
# Description: as §1
# [15] = NCTC9632, Table 1, 10^6 CFU/ml, 37° C., 18 hours
# [16] = Table 1, 10^6 CFU/ml, 37° C., 18 hours
# [17] = ATCC6633, Table 1, 10^6 CFU/ml, 37° C., 18 hours
# [18] = 2AEW10, Table 1, 10^6 CFU/ml, 37° C., 18 hours
# [19] = S23, Table 1, 10^6 CFU/ml, 37° C., 18 hours
# [20] = IFO3736, Table 1, 10^6 CFU/ml, 37° C., 18 hours
# [21] = IFO3445, Table 1, 10^6 CFU/ml, 37° C., 18 hours
# [22] = NCTC9632, 18 h, Table 2, same microorganisms as Table 1
# [23] = 18 h, Table 2, same microorganisms as Table 1
# [24] = N1HJJC2, 18 h, Table 2, same microorganisms as Table 1, read-out: MIC
# [25] = ATCC6633, 18 h, Table 2, same microorganisms as Table 1
# [26] = 2AEW10, 18 h, Table 2, same microorganisms as Table 1
# [27] = IFO3736, 18 h, Table 2, same microorganisms as Table 1
# [28] = IFO3445, 18 h, Table 2, same microorganisms as Table 1
Structure (SMILES),ED50 (E. Coli KC-14 [1]) [mg/mouse],ED50 (P. aeruginosa E-2 [2]) [mg/mouse],ED50 (E. Coli KC-14 [13]) [mg/mouse],ED50 (P. aeruginosa E-2 [14]) [mg/mouse],"MIC [3, 22] [µg/mL]","MIC [4, 23] [µg/mL]","MIC [5, 24] [µg/mL]","MIC [6, 25] [µg/mL]","MIC [8, 26] [µg/mL]","MIC [11, 27] [µg/mL]","MIC [12, 28] [µg/mL]",further results
"CC1COc2c(N3CCN(C)CC3)c(F)cc3c(=O)c(C(=O)O)cn1c23 (racemic) [Ofloxacin, ofloxacin, reference compound]",0.052,0.521,0.011,0.692,–,–,–,–,–,–,–,"MIC [3, 15]: 0.05 µg/mL; MIC [4, 16]: 0.39 µg/mL; MIC ([5]; N1HJJC2, Table 1, 10^6 CFU/ml, 37° C., 18 hours, read-out: MIC): 0.1 µg/mL; MIC [6, 17]: 0.1 µg/mL; MIC [7, 16]: 1.56 µg/mL; MIC [8, 18]: 0.025 µg/mL; MIC [9]: 0.39 µg/mL; MIC [10, 19]: 1.56 µg/mL; MIC [11, 20]: 0.78 µg/mL; MIC [12, 21]: 1.56 µg/mL"
"NC1CCN(c2c(F)cc3c(=O)c(C(=O)O)c4n(c3c2F)CS4)C1 (centres unmarked) [Example 9, 7-(3-Amino-1-pyrrolidinyl)-6,8-difluoro-4-oxo-4H-[1,3]thiazeto[3,2-a]quinoline-3-carboxylic acid]",–,–,–,–,0.0125,0.025,0.0125,0.1,≤ 0.00625,0.1,0.0125,–
"O=C(O)c1c2n(c3c(F)c(N4CCNCC4)c(F)cc3c1=O)CS2 [Example 5, 6,8-Difluoro-4-oxo-7-(1-piperazinyl)-4-oxo-4H-[1,3]thiazeto[3,2-a]quinoline-3-carboxylic acid]",–,–,–,–,0.025,0.1,0.025,0.1,0.0125,0.05,0.2,–
"CCOC(=O)c1c2n(c3c(F)c(N4CCNCC4)c(F)cc3c1=O)C(c1ccc(F)cc1)S2 (centres unmarked) [Example 25, Ethyl 6,8-difluoro-1-(4-fluorophenyl)-4-oxo-7-(1-piperazinyl)-4H-[1,3]thiazeto[3,2-a]quinoline-3-carboxylate]",–,–,–,–,–,0.2,0.1,0.1,0.05,1.56,0.39,–
"O=C(O)c1c2n(c3c(F)c(N4CCNCC4)c(F)cc3c1=O)C(c1ccccc1)S2 (centres unmarked) [Example 21, 6,8-Difluoro-4-oxo-1-phenyl-7-(1-piperazinyl)-4H-[1,3]thiazeto[3,2-a]quinoline-3-carboxylic acid]",–,–,–,–,≤ 0.00625,0.2,0.1,0.1,0.05,1.56,0.39,–
"CC1Sc2c(C(=O)O)c(=O)c3cc(F)c(N4CCNCC4)c(F)c3n21 (centres unmarked) [Example 2, 6,8-Difluoro-1-methyl-4-oxo-7-(1-piperazinyl)-4H-[1,3]thiazeto[3,2-a]quinoline-3-carboxylic acid]",0.013,0.156,0.0078,0.154,–,–,–,–,–,–,–,"MIC [3, 15]: 0.0125 µg/mL; MIC [4, 16]: 0.1 µg/mL; MIC ([5]; N1HJJC2, 18 h): 0.0125 µg/mL; MIC [6, 17]: 0.05 µg/mL; MIC [7, 16]: 0.39 µg/mL; MIC [8, 18]: ≤ 0.00625 µg/mL; MIC [9]: 0.025 µg/mL; MIC [10, 19]: 0.39 µg/mL; MIC [11, 20]: 0.1 µg/mL; MIC [12, 21]: 0.1 µg/mL"
"CCOC(=O)c1c2n(c3c(F)c(N4CCNCC4)c(F)cc3c1=O)C(C)S2 (centres unmarked) [Example 1, Ethyl 6,8-difluoro-1-methyl-4-oxo-7-(1-piperazinyl)-4H-[1,3]thiazeto[3,2-a]quinoline-3-carboxyate]",–,–,0.0046,0.09,–,–,–,–,–,–,–,–
"CC1Sc2c(C(=O)O)c(=O)c3cc(F)c(N4CCN(C)CC4)c(F)c3n21 (centres unmarked) [Example 4, 6,8-Difluoro-1-methyl-7-(4-methyl-1-piperazinyl)-4-oxo-[1,3]thiazeto[3,2-a]quinoline-3-carboxylic acid]",0.011,0.177,–,–,0.025,0.2,0.05,0.05,0.0125,0.2,0.2,"MIC [7, 23]: 0.39 µg/mL; MIC ([10]; S23, 18 h, Table 2, same microorganisms as Table 1): 0.39 µg/mL"
"CN1CCN(c2c(F)cc3c(=O)c(C(=O)O)c4n(c3c2F)CS4)CC1 [Example 7, 6,8-Difluoro-7-(4-methyl-1-piperazinyl)-4-oxo-4H-[1,3]thiazeto[3,2-a]quinoline-3-carboxylic acid]",0.014,0.263,–,–,0.0125,0.2,0.05,0.05,0.025,0.1,0.39,–

# From patent publication US5011831A, “Derivatives of quinolinecarboxylic acid” (Nippon Shinyaku Co. Ltd., priority 1987, dated 1991)
